Laboratory results: patent US5162354A, “3-halo-5-halomethyl-2-oxazolidinones and their use as microbicides” (Buckman Laboratories International, Inc., priority 1991, dated 1992)
Converted amounts (≈) assume the structure as drawn. Where two headings read alike, the source gives them in different places.

What was measured:
Type in all cases: cell-based
Phormidium inundatum = experiment: Growth inhibiting activity against algae in Difco Algae Broth (Phormidium inundatum); conditions: 672 h
Method: (§1) The growth inhibiting activity of the method of the invention against the three algae Chlorella pyrenoidosa, Chlorococcum hypnosporum and Phormidium inundatum was evaluated in Difco Algae Broth, the content of which was as follows:
(§2) Forty-gram portions of the algae medium were added to 250 mL Pyrex Erlenmeyer flasks fitted with loose metal caps and then sterilized. Each of the following substances was then added to the flasks in the order listed:
(§3) 1. Sterile algae medium as required to bring the total weight of the contents of each flask to 50 grams, after allowing for all subsequent additions specified below.
(§4) 2. A solution of one of compounds 1-4 or of a control agent to be evaluated in each test, to give the concentration desired in parts per million by weight.
(§5) 3. Chlorella pyrenoidosa, Chlorococcum hypnosporum and Phormidium inundatum in amounts sufficient to give excellent growth in the controls after 14 days. This was achieved by adding 1 milliliter of a 14 day old culture having luxuriant growth. The Chlorella pyrenoidosa culture was obtained from American Type Culture Collection No. 7516; Chlorococcum hypnosporum, from the University of TX at Austin; and Phormidium inundatum, WI No. 1093, from the University of WA.
(§6) As a control experiment, WSCP was used as a positive control agent. WSCP is a known toxicant which kills C. pyrenoidosa at 2 ppm, C. hypnosporum at 2ppm, and P. inundatum at 10 ppm. Control experiments were also carried out where no toxicants were employed. In the algicidal tests, the growth of algae in the nutrient medium is lush green and can be seen with the naked eye. Because the minimum inhibitory concentrations of the compounds in this example are those which result in complete inhibition, evaluation of the test results is not subjective.
(§7) After the inoculum of the test algae was added, the flasks were incubated at a temperature of 28°±2° C. under fluorescent illumination of 250 foot-candle intensity (8 hours light, 16 hours darkness) for a period adequate for growth in the controls (those portions of medium which contained no toxicant). Observations of growth were made at 7-day intervals. Minimum inhibitory concentrations are those that prevented complete growth after 28 days.

Aspergillus niger = experiment: Growth inhibiting activity on the fungus Aspergillus niger; conditions: Aspergillus niger pH 6.0; completely prevented growth; read-out: Minimum inhibitory concentration against fungi
Method: The microorganism growth inhibiting activity of compounds 1-4 on the fungus Aspergillus niger was evaluated. The method is described in U.S. Pat. No. 4,945,109, column 5 beginning at line 47 to column 6, line 33. The disclosure of U.S. Pat. No. 4,945,109 is incorporated herein by reference.

Enterobacter aerogenes = experiment: Basal salts method, minimum inhibitory concentration against Enterobacter aerogenes; conditions: Klebsiella aerogenes, at least 80% kill
Method: Compounds 1-4 of Examples 3-6 of the present invention were tested by the basal salts method described in U.S. Pat. No. 2,881,070 at column 5, beginning at line 12 and extending to column 6, line 53. […] The minimum inhibitory concentrations are those in which a percentage kill of at least 80% is obtained.

Chlorella pyrenoidosa = experiment: Growth inhibiting activity against algae in Difco Algae Broth (Chlorella pyrenoidosa); conditions: Auxenochlorella pyrenoidosa, 672 h
Method: as §1, §2, §3, §4, §5, §6, §7

Chlorococcum hypnosporum = experiment: Growth inhibiting activity against algae in Difco Algae Broth (Chlorococcum hypnosporum); conditions: 672 h
Method: as §1, §2, §3, §4, §5, §6, §7

[1] = pH 7, read-out: Minimum inhibitory concentration against algae

`O=C1OC(CCl)CN1Cl` (stereo not drawn) [Compound 2, 3-Chloro-5-chloromethyl-2-oxazolidinone] showed an MIC (Phormidium inundatum; [1]) of 1 µg/mL (≈ 5.88 µM), an MIC (Aspergillus niger) of 128 µg/mL (≈ 753 µM) and an MIC (Enterobacter aerogenes; pH 6.0) of 8 µg/mL. For the same compound, the MIC (Enterobacter aerogenes; pH 8.0) was 10 µg/mL, the MIC (Chlorella pyrenoidosa; [1]) was 1 µg/mL (≈ 5.88 µM) and the MIC (Chlorococcum hypnosporum; [1]) was 1 µg/mL (≈ 5.88 µM).
For `O=C1OC(CBr)CN1Br` (stereo not drawn) [Compound 3, 3-Bromo-5-bromomethyl-2-oxazolidinone], the MIC (Phormidium inundatum; P. inundatum, pH 7, 28 days, read-out: Minimum inhibitory concentration against algae) was 2 µg/mL (≈ 7.73 µM), the MIC (Aspergillus niger) was 100 µg/mL (≈ 386 µM) and the MIC (Enterobacter aerogenes; pH 6.0) was 2 µg/mL. The MIC (Enterobacter aerogenes; pH 8.0) was 4 µg/mL, the MIC (Chlorella pyrenoidosa; C. pyrenoidosa, pH 7, 28 days, read-out: Minimum inhibitory concentration against algae) was 2 µg/mL (≈ 7.73 µM) and the MIC (Chlorococcum hypnosporum; C. hypnosporum, pH 7, 28 days, read-out: Minimum inhibitory concentration against algae) was 8 µg/mL (≈ 30.9 µM).
For `O=C1OC(CBr)CN1Cl` (stereo not drawn) [Compound 4, 3-Chloro-5-bromomethyl-2-oxazolidinone], the MIC (Phormidium inundatum; [1]) was 8 µg/mL (≈ 37.3 µM), the MIC (Aspergillus niger) was 100 µg/mL (≈ 466 µM) and the MIC (Enterobacter aerogenes; pH 6.0) was 10 µg/mL. It also gave an MIC (Enterobacter aerogenes; pH 8.0) of 20 µg/mL, an MIC (Chlorella pyrenoidosa; [1]) of 4 µg/mL (≈ 18.7 µM) and an MIC (Chlorococcum hypnosporum; [1]) of 8 µg/mL (≈ 37.3 µM).
